# Measurements from PubChem BioAssay (NCI).
# Values joined by “and” are separate entries in the source; they are usually repeats but may differ in a detail not shown here. Equal entries are not always repeated.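 These data come from cells grown in 96-well plates and exposed to compound for 48 hours at five concentrations. At the GI50, growth is halved. TGI: total growth inhibition.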
# Assays:
# Assay in all cases: inhibition of tumour cell growth, NCI panel, 48 h
# [1] = system: EKVX NSCLC
# [2] = system: HCC-2998 colon
# [3] = system: MCF7 breast
# [4] = system: MOLT-4 leukemia
# [5] = system: PC-3 prostate
# [6] = system: SF-295 CNS
# [7] = system: SN12C renal
# [8] = system: U251 CNS
# [9] = system: UACC-257 melanoma
# [10] = system: UO-31 renal
Structure (SMILES),GI50 [1],TGI [1],GI50 [2],TGI [2],GI50 [3],TGI [3] [µM],GI50 [4],TGI [4],GI50 [5],TGI [5] [µM],GI50 [6] [µM],TGI [6],GI50 [7] [µM],TGI [7] [µM],GI50 [8],TGI [8],GI50 [9] [µM],TGI [9],GI50 [10],TGI [10]
COc1cc2c(cc1NC(=O)C(Cl)Cl)-c1ccc(NC(=O)C(Cl)Cl)cc1C2,0.347 µM,1.32 µM,0.976 µM,2.38 µM,0.391 µM,1.82,11.9 µM,> 89.6 µM,0.606 µM,1.76,0.371,1.12 µM,4.67,19.6,0.245 µM,0.708 µM,1.02,3.54 µM,0.73 µM,2.75 µM
O=S(=O)(NCCCNc1cc(-c2cn(-c3ccccc3)nc2-c2cccc(O)c2)ccn1)c1ccc(F)cc1,3.92 µM,64.4 µM,2.2 µM,4.52 µM,3.26 µM,12.4,2.15 µM,6.55 µM,3.11 µM,8.5,1.95,4.09 µM,4.32,28.2,2.97 µM,10.3 µM,2.92,7.26 µM,2.62 µM,11.9 µM
COc1cc(C(=O)/C=C/c2c(C(F)(F)F)nc3ccccn23)cc(OC)c1OC,2.37 µM,6.78 µM,1.83 µM,3.38 µM,1.44 µM,6.41,3.73 µM,> 100 µM,3.8 µM,32.8,1.99,3.92 µM,2.09,6.49,1.29 µM,3.31 µM,2.05,5.08 µM,1.49 µM,3.11 µM
O=S(=O)(O)c1ccc2cc3nn(-c4ccc(/C=C/c5ccc(-n6nc7cc8ccc(S(=O)(=O)O)cc8cc7n6)cc5S(=O)(=O)O)c(S(=O)(=O)O)c4)nc3cc2c1,95.2 µM,> 100 µM,73.8 µM,> 100 µM,> 100 µM,> 100,12.2 µM,81.7 µM,74.7 µM,> 100,> 100,> 100 µM,67.8,> 100,50.3 µM,> 100 µM,> 100,> 100 µM,26.1 µM,> 100 µM
C[C@@H](NC(=O)c1ccc(F)cc1)c1ccc2c(c1)CCN2C(=O)C1CCOCC1,> 100 µM,> 100 µM,> 100 µM,> 100 µM,> 100 µM,> 100,> 100 µM,> 100 µM,> 100 µM,> 100,> 100,> 100 µM,> 100,> 100,> 100 µM,> 100 µM,> 100,> 100 µM,> 100 µM,> 100 µM
COc1ccc2c(c1)C(=O)c1c-2c(=O)n(CCCN(C)C)c2cc(OC)c(OC)cc12,16.5 µM,30.7 µM,14.1 µM,27.3 µM,0.141 µM,15.3,0.149 µM,12 µM,11.4 µM,26.5,0.158,0.774 µM,2.18,16.6,1.23 µM,18.9 µM,16.9,33 µM,3.4 µM,16.1 µM
O=C(c1cc(Cc2n[nH]c(=O)c3ccccc23)ccc1F)N1CCN(C(=O)C2CC2)CC1,18 µM and 77.7 µM,> 100 µM,53.5 µM and > 100 µM,> 100 µM,47.4 µM and 34.2 µM,> 100,46.7 µM and 22.4 µM,> 100 µM,43.1 µM and > 71.4 µM,> 100,,23.4 µM and > 100 µM,> 100,> 100,35.1 µM and 31.5 µM,> 100 µM,> 100,> 100 µM,71.7 µM and 40.7 µM,> 100 µM
CC1CCN(CCOc2ccc(CNc3ccc4nc(CCC5CCCCC5)[nH]c4c3)cc2)CC1,1.62 µM,3.18 µM,1.42 µM,2.85 µM,1.73 µM,3.8,1.6 µM,4.5 µM,1.44 µM,2.93,1.87,3.46 µM,1.54,2.95,1.44 µM,2.85 µM,1.88,3.74 µM,1.38 µM,2.67 µM
CC1=NNC(=S)NCCCN2CCN(CCCNC(=S)NN=C(C)C=NNC(=S)NCCCN3CCN(CCCNC(=S)NN=C1)CC3)CC2,,> 100 µM,,> 100 µM,,> 100,,> 100 µM,,> 100,,> 100 µM,,> 100,,> 100 µM,,> 100 µM,,> 100 µM
C[C@H]1CN(C2COC2)CCN1c1ccc(Nc2cc(-c3ccnc(N4CCn5c(cc6c5CC(C)(C)C6)C4=O)c3CO)cn(C)c2=O)nc1,> 100 µM,> 100 µM,49.9 µM,> 100 µM,28.7 µM,> 100,14.3 µM,> 100 µM,36.6 µM,> 100,68.6,> 100 µM,49.9,> 100,44.8 µM,> 100 µM,27.6,58.1 µM,21.7 µM,> 100 µM
Cc1ccc(-n2c(-c3cc4c([nH]c5ccccc54)c(-c4cccc(O)c4)n3)n[nH]c2=S)cc1,1.95 µM,11.1 µM,0.268 µM,0.838 µM,1.8 µM,10.5,0.908 µM,4.76 µM,2.48 µM,42.4,1.11,3.12 µM,0.936,6.91,0.371 µM,2.22 µM,2.03,7.11 µM,2.56 µM,15 µM
C/C(=N\NC(=S)N1CCN(c2ccccn2)CC1)c1ncccn1,0.0494 µM,5.2 µM and 12.8 µM,0.177 µM,5.21 µM and 13.5 µM,,13.4,,7.02 µM and > 38.4 µM,0.0298 µM,15.9,0.0934,5.83 µM and 6.76 µM,0.0709,18.1,0.0796 µM,5.45 µM and 11.8 µM,0.0339,1.42 µM and 4.27 µM,0.535 µM,4.58 µM and 13.7 µM
